In test [1] the target is T1, GST-PTPbr7 (Mus musculus, UniProt Q62132).
T1 construct: purchased PanVera
T1 sequence (Q62132 24-656): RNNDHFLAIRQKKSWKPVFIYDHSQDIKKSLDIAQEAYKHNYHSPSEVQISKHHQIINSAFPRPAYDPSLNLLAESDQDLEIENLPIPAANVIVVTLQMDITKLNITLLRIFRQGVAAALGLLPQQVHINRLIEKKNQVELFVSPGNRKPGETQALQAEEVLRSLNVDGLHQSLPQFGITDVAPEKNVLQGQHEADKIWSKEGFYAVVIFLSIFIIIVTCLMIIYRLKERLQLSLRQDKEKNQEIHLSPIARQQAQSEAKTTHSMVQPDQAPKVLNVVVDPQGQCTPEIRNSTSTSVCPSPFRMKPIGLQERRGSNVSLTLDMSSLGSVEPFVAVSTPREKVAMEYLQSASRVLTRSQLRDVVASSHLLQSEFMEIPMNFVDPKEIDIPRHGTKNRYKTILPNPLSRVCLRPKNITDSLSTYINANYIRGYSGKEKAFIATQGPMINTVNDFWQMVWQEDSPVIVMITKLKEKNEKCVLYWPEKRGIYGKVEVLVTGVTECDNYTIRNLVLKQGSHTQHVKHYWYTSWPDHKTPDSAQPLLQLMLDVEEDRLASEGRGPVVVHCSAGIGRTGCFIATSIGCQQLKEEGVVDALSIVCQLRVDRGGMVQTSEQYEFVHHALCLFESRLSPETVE
The experiment in a line: PTPbr7 inhibition assay: fluorogenic substrate (O-methyl fluorophosphate). Type of test: biochemical. Particulars: sodium orthovanadate 1 mM; O-methyl fluorophosphate 10 μM; GST-PTPbr7 4 μg/mL; 30 min, room temperature; in absence of inhibitor 4100.00. As for the experimental part: The ability of a test agent (positive control, non-specific tyrosine phosphatase inhibitor, sodium orthovanadate) to inhibit the dephosphorylation of a fluorogenic substrate by a PTPbr7 fusion protein was determined as follows.
80 μL of the diluted substrate (final concentration of 10 μM) was then added to each of two wells of a 96-well microtiter plate (COSTAR #3690 plate), followed by, in one of the wells, sodium orthovanadate (1 mM, final concentration), and in both wells, 20 μL of GST-PTPbr7 (4 μg, PanVera) to give a final enzyme concentration in each of the assays of 4 μg/mL. The reactions were incubated at room temperature for 30 min. For each reaction, the fluorescent emission was measured by excitation at 485 nm and emission at 535 nm using a Victor II plate reader (Packard). The presence of the test agent (sodium orthovanadate) in the reaction caused a decrease in the fluorescent signal (1250.00) compared to the reaction in the absence of inhibitor (4100.00).

Test [2] addresses T1, GST-PTPbr7. Put plainly: PTPbr7 inhibition assay: peptide substrate (malachite green readout). Type of test: biochemical. The following applies: sodium orthovanadate 1 mM; peptide ENDpYINASL 0.1 mM; GST-PTPbr7 4 μg; 30 min, 25° C., pH 7.4; in absence of inhibitor 0.65. As for the experimental part: The ability of a test agent (positive control, non-specific tyrosine phosphatase inhibitor, sodium orthovanadate) to inhibit the dephosphorylation of a peptide having a phosphotyrosine residue by a PTPbr7 fusion protein was determined as follows.GST-PTPbr7 (4 μg, PanVera) is mixed together with the peptide [ENDpYINASL] (0.1 mM, American Peptide Company), with and without sodium orthovanadate (1 mM, SIGMA®-Aldrich), in a total volume of 25 μL assay buffer (50 mM Tris, 0.15 M NaCl, 5 mM DTT, 0.1% BSA), pH 7.4, at 25° C., in separate wells of a ½ volume 96-well microtiter plate (COSTAR #3690 plate), for 30 min.
The reactions were then terminated by the addition of 100 μL of MG/AM stop solution. MG (Malachite Green) solution was obtained from SIGMA®-Aldrich cat no. M9636, and can be prepared by dissolving 500 mg/L in dH2O, filtering the solution with a Whatman #1 filter, and storing at 4° C. AM (Ammonium Molybdate) solution was obtained from SIGMA®Aldrich cat. no. A7302, 42 g/L in 4 M HCl (345 mL concentration HCl/L, stored at 4° C.). MG/AM mixture was prepared by mixing one part AM to 3 parts MG, stirring for at least 30 min, at room temperature, filtering with a Whatman #5, and storing at 4° C. […]
The plate is then incubated at room temperature for 15 min and, after removing any bubbles, the optical density of the solution in each well was read at A620 (620 nm, spectrophotometer). […]

Another test has as its system PC12 cells. The experiment in a line: NGF-induced neurite outgrowth in PC12 cell lines transfected with full length mouse PTPbr7. The following applies: 50 ng/mL NGF for 6 days. Type of test: cell-based, rat. An excerpt:
Total mouse brain RNA (Strategene) was subjected to RT-PCR cloning using […] as the 5′ primer, and […] as the 3′ primer (CPMB, see, in particular, Chapter 15, The Polymerase Chain Reaction, Supplement 30). The cDNA clone (full length mouse PTPbr7) was introduced into PC12 cells by transfection using Lipofectamine™ Reagent (Life Technologies) and substantially following the instructional sheet (for adherent cells, see also, CPMB, in particular, Chapter 9, Introduction of DNA into Mammalian Cells, Supplement 39) which specifies the concentration of DNA and reagent, cell density, transfection times, and transfection protocol. Stable cell lines were selected in (200 μg/mL) G418 (Life Technologies), as also provided by the instructional sheet, and the overexpressing cell lines were identified by Northern Blot analysis (see CPMB, in particular, Chapter 4, Preparation and Analysis of RNA, Chapter 4.9.1, Analysis of RNA by Northern Blot Hybridization, Supplement 26). The transfected cell lines were then treated with 50 ng/mL NGF (Life Technologies) for 6 days. The degree of neurite outgrowth was quantitated using photomicrographs where the total number of cells in the field was counted, then the cells were recounted that had one or more neurites that were greater than or equal to one cell body diameter in length, and a “% neurites” was determined.

Test [3] has as its system PTPbr7 mRNA in PC12 cells. Particulars: PC12 cells following treatment with NGF; Sharma and Lombroso 1995; cited from earlier work.

For the compound `[Na+].[Na+].[Na+].[O]=[V]([O-])([O-])[O-]` [sodium orthovanadate], on GST-PTPbr7 [1], the “fluorescent signal (excitation 485 nm, emission 535 nm)” value stood at 1250.00. Further, at GST-PTPbr7 [2], the “optical density 620 nm” value is reported as 0.10.

Regarding “NGF: Nerve growth factor, a neurotrophic factor which mediates the survival, differentiation and maintenance of specific populations of neurons”, the “% Neurite on Day 6 (+NGF)” value in the test on PC12 cells (cell line br7-9, PTPbr7 expression none) was found to be 52%; in the test with PC12 cells (cell line br7-11, PTPbr7 expression high) it was 26%; with PC12 cells (cell line br7-12, PTPbr7 expression high), 24%; with PC12 cells (cell line br7-13, PTPbr7 expression high), 32%. In test [3], the “upregulation of PTPbr7 mRNA” value is 8 fold.

These data come from US20020086342A1, “Assays for identifying phosphatase inhibitors” (priority 2000, published 2002).
